Measurements taken from patent US9238040B2, “Chemoprevention of colorectal cancer by mesalamine/sulfasalazine” (RUTGERS, THE STATE UNIVERSITY OF NEW JERSEY, priority 2005, dated 2016).

What was measured:
LS180 cells = experiment: Microarray analysis of gene expression in LS180 cells; type: cell-based, human; settings: 200 mM, 4 hours and 24 hours, compared with 5-ASA untreated LS180 cells
TC22 = experiment: FACS of TC22 expression in LS180 colon cancer cells (antibody TC22-4); type: cell-based, human; settings: 4 hours, Serum Free Media
Description: Specific monoclonal antibodies, CG3 for hTM5 and TC22-4 for TC22 were used against the cells in a fluorescent activated cell sorter (FACS). Reverse transcriptase PCR (RT-PCR) was utilized to quantify the transcription of hTM5 and TC-22. […] Dishes were washed with 10 ml PBS 3 times. Cells were detached with 0.25% trypsin-EDTA and collected. All cells were >90% viable. The cells were washed and then fixed by using 4% paraformaldehyde for 5 minutes. Cells were washed 2 times. Cells were then resuspended and the first antibody was added: MOPC IgM(0.5 mg/mL) 1 μl (1:100), MOPCIgG(0.5 mg/mL) 1 μl (1:100), CG3 IgM(2.4 mg/mL) 1 μL of (2+3 μL Buffer) (1:250) for hTM5, TC22-4 IgG(30 mg/mL) 1 μL of (1+9 uL Buffer) (1:1000) for TC22. The suspension was incubated at 4° C. for 30 minutes, shaken and washed (2 times) with 30 vol. of PBS/0.5 BSA/2 mm EDTA. The second antibody was added: 1 μl tube (1:100) Cy2 (Cyanine)-conj. G-α-M IgM or Cy2 (Cyanine)-conj. G-α-M IgM, then incubated at 4° C. for 30 minutes, shaken and washed (2 times) with 100 vol. buffer 2 times. The cells were then resuspended in 1 ml wash buffer. FACS was used to detect hTM5 and TC22 expression within 1 hour. […] The graphs show the number of cells as a function of fluorescence intensity. LM1 represents the percent of cells present but not expressing TC22. LM2 represents the percent of cells containing TC22.

Structure (SMILES): Nc1ccc(O)c(C(=O)O)c1 [5-ASA, 5-Aminosalicylic Acid]
- Number of genes down-regulated (LS180 cells): >385
- Number of genes up-regulated (LS180 cells): >194
- expression of TC22 (FACS, FIG. 1f) (TC22): reduced the expression of TC22
